The results in this text go back to patent publication US20250304537A1 (Repare Therapeutics Inc., priority 2022, published 2025).

Where only a bound is given, the exact number is not on record here.

Experiment [1] concerns the target recombinant human Myt1 (full length PKMYT1) (Homo sapiens (Human), UniProt Q99640). Kind of experiment: Recombinant human Myt1 kinase assay (ADP-Glo). It counts as biochemical. The conditions noted are these: 10 μM ATP. The essentials: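 ADP-Glo luminescence measured ATP hydrolysis by recombinant full-length PKMYT1 (18 nM) after 60 min at 30 °C with 10 μM ATP. Compounds in 0.5% DMSO were added to the enzyme 15 min before ATP, at 22 °C, in HEPES/MgCl2/MnCl2 buffer. IC50 and percent maximal inhibition were derived.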
(In general: ADP-Glo first removes unused ATP, then detects ADP through luciferase.)

Experiment [2] has as its system PKMYT1 (CDK1 pThr14) in FUOV1 cells. Put plainly: PKMYT1 cell-based activity assay, CDK1 pThr14 AlphaLISA in FUOV1 cells. The settings on record: 2 h, 2 h compound incubation, read-out: FUOV-1 CDK1 pThr14 IC50. In a few lines: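 IC50 was derived from AlphaLISA signal (excitation 680 nm, emission 615 nm) for phospho-Thr14 CDK1 in lysates. The detection antibodies were rabbit anti-pThr14 and mouse anti-total CDK1, each at 5 nM. FUOV1 ovarian cells were exposed to compound for 2 hours before lysis.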
For orientation: Alpha assays give light when donor and acceptor beads are brought close together.

Sequence of recombinant human Myt1 (full length PKMYT1) (Q99640 whole entry): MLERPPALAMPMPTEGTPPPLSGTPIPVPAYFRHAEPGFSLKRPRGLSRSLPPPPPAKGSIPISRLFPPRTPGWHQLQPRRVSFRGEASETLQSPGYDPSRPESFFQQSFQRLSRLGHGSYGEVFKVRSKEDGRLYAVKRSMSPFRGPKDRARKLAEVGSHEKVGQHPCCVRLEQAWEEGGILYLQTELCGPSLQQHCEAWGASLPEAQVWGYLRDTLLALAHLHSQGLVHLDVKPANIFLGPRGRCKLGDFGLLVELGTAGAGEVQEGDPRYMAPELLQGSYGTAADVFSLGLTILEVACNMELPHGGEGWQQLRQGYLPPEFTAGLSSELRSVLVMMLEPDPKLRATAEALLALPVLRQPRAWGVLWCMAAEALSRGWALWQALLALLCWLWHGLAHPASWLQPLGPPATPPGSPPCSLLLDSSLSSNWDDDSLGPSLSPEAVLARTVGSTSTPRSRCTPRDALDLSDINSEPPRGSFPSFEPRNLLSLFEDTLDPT

`Cc1ccc2[nH]ncc2c1-c1nc(-c2ccccc2Nc2ncccn2)nc(C(N)=O)c1N` [Compound 449, 5-amino-6-(5-methyl-1H-indazol-4-yl)-2-(2-(pyrimidin-2-ylamino)phenyl)pyrimidine-4-carboxamide]: the IC50 (in general, the concentration at which inhibition is half-maximal) was 7 nM in experiment [1] and 23 nM in experiment [2].

For the compound `Cc1ccc2[nH]ncc2c1-c1nc(-c2ccccc2Nc2ccc(F)cn2)nc(C(N)=O)c1N` [Compound 450], the IC50 in experiment [1] was determined as 8 nM; in experiment [2], 121 nM.

Regarding `Cc1ccc2[nH]ncc2c1-c1nc(-c2ccccc2NC(C)(C)C)nc(C(N)=O)c1N` [Compound 451], the figures for the IC50 in experiment [1] and in experiment [2] were 7 nM and 104 nM, respectively.

Regarding `Cc1ccc2[nH]ncc2c1-c1nc(-c2ccccc2NCC2(C)CC2)nc(C(N)=O)c1N` [Compound 452], the values for the IC50 in experiment [1] and in experiment [2] were 16 nM and 124 nM, respectively.

In the case of `Cc1ccc2[nH]ncc2c1-c1nc(-c2ccccc2NC2CCC(F)(F)CC2)nc(C(N)=O)c1N` [Compound 453], the IC50 amounted to 12 nM in experiment [1] and 317 nM in experiment [2].

Consider `Cc1ccc2[nH]ncc2c1-c1nc(-c2ccc(C(F)(F)F)cc2NC(=O)C2(C)CC2)nc(C(N)=O)c1N` [Compound 454, 5-amino-6-(5-methyl-1H-indazol-4-yl)-2-(2-(1-methylcyclopropane-1-carboxamido)-4-(trifluoromethyl)phenyl)pyrimidine-4-carboxamide], for which the IC50 in experiment [1] came to 26 nM; in experiment [2] it was 447 nM.

In the case of `COc1ccc(-c2nc(C(N)=O)c(N)c(-c3c(C)ccc4[nH]ncc34)n2)c(NC(=O)C2(C)CC2)c1` [Compound 455], the IC50 in experiment [1] worked out at 6 nM; in experiment [2], 21 nM.

Regarding `Cc1ccc2[nH]ncc2c1-c1nc(-c2cccc(F)c2NC(=O)C2(C)CC2)nc(C(N)=O)c1N` [Compound 456], the results for the IC50 in experiment [1] and in experiment [2] were 6 nM and 158 nM, respectively.

`Cc1cccc(NC(=O)C2(C)CC2)c1-c1nc(C(N)=O)c(N)c(-c2c(C)ccc3[nH]ncc23)n1` [Compound 457]: the IC50 in experiment [1] was 516 nM; in experiment [2] it was greater than 10000 nM.

`Cc1ccc2[nH]ncc2c1-c1cc2c(oc3cccnc32)c(C(N)=O)c1N` [Compound 458, 7-amino-8-(5-methyl-1H-indazol-4-yl)benzofuro[3,2-b]pyridine-6-carboxamide]: the IC50 in experiment [1] came to 2 nM; in experiment [2], 142 nM.

Turning to `CC1(C(=O)Nc2cc(F)c(F)cc2-c2nc(C(N)=O)c(N)c(-c3c(Cl)ccc4[nH]ncc34)n2)CC1` [Compound 459], the IC50 in experiment [1] was 9 nM; in experiment [2] it was 44 nM.

On to `Cc1ccc2[nH]ncc2c1-c1nc(-c2ccccc2NC(=O)c2cccc(F)c2)nc(C(N)=O)c1N` [Compound 460], for which the IC50 in experiment [1] was 10 nM; in experiment [2], 825 nM.

Take `Cc1ccc2[nH]ncc2c1-c1nc(-c2ccccc2NC(=O)C2(F)CC2)nc(C(N)=O)c1N` [Compound 461]: the IC50 in experiment [1] is 3 nM; in experiment [2], 6 nM.

As for `Cc1ccc2[nH]ncc2c1-c1nc(-c2ccccc2NC(=O)C2(C)CC(F)(F)C2)nc(C(N)=O)c1N` [Compound 462], the IC50 turned out to be 4 nM in experiment [1] and 137 nM in experiment [2].

Turning to `Cc1ccc2[nH]ncc2c1-c1nc(-c2ccccc2NC(=O)C2(C)CC2(Cl)Cl)nc(C(N)=O)c1N` (centres unmarked) [Compound 463], the 50% inhibitory concentration (IC50) was determined as 8 nM in experiment [1] and 278 nM in experiment [2].

Take `COCCNc1ccccc1-c1nc(C(N)=O)c(N)c(-c2c(C)ccc3[nH]ncc23)n1` [Compound 464]: the values for the IC50 in experiment [1] and in experiment [2] were 3 nM and 370 nM, respectively.

For the compound `Cc1ccc2[nH]ncc2c1-c1nc(-c2cnccc2NC(=O)OC(C)(C)C)nc(C(N)=O)c1N` [Compound 465], the figures for the IC50 in experiment [1] and in experiment [2] were 5 nM and 233 nM, respectively.

`Cc1ccc2[nH]ncc2c1-c1nc(-c2cc(F)c(F)cc2NC2CCOCC2)nc(C(N)=O)c1N` [Compound 466, 5-amino-2-(4,5-difluoro-2-((tetrahydro-2H-pyran-4-yl)amino)phenyl)-6-(5-methyl-1H-indazol-4-yl)pyrimidine-4-carboxamide]: the values for the IC50 in experiment [1] and in experiment [2] were 6 nM and 77 nM, respectively.

Regarding `Cc1ccc2[nH]ncc2c1-c1nc(-c2cc(F)c(F)cc2NCC(F)F)nc(C(N)=O)c1N` [Compound 467], the half-maximal inhibitory concentration (IC50) in experiment [1] turned out to be 6 nM; in experiment [2], 106 nM.

For the compound `NC(=O)c1nc(-c2cc(F)c(F)cc2NCC(F)F)nc(-c2c(Cl)ccc3[nH]ncc23)c1N` [Compound 468], the results for the IC50 in experiment [1] and in experiment [2] were 6 nM and 228 nM, respectively.

In the case of `Cc1ccc2[nH]ncc2c1-c1nc(-c2cccnc2N)nc(C(N)=O)c1N` [Compound 469], the IC50 worked out at 12 nM in experiment [1] and 540 nM in experiment [2].

Regarding `Cc1ccc2[nH]ncc2c1-c1nc(-c2cc(F)c(F)cc2NC(=O)C2(C(F)(F)F)CCC2)nc(C(N)=O)c1N` [Compound 470], the values for the IC50 in experiment [1] and in experiment [2] were 18 nM and 1230 nM, respectively.

As for `Cc1ccc2[nH]ncc2c1-c1nc(-c2cc(F)c(F)cc2NC(=O)C2(C(F)(F)F)CC2)nc(C(N)=O)c1N` [Compound 471], the values for the half-maximal inhibitory concentration (IC50) in experiment [1] and in experiment [2] were 16 nM and 261 nM, respectively.

Consider `Cc1ccc2[nH]ncc2c1-c1nc(-c2cc(F)ccc2Nc2ncccn2)nc(C(N)=O)c1N` [Compound 472], for which the IC50 in experiment [1] was determined as 6 nM; in experiment [2], 26 nM.

For `CCOC(=O)Nc1ccccc1-c1nc(C(N)=O)c(N)c(-c2c(C)ccc3[nH]ncc23)n1` [Compound 473], the IC50 in experiment [1] was found to be 8 nM; in experiment [2], 48 nM.

For `Cc1ccc2[nH]ncc2c1-c1nc(-c2ccccc2NC(=O)OC(C)(C)C)nc(C(N)=O)c1N` [Compound 474], the values for the concentration for half-maximal inhibition (IC50) in experiment [1] and in experiment [2] were 16 nM and 398 nM, respectively.

On to `Cc1ccc2[nH]ncc2c1-c1nc(-c2cc(F)c(F)cc2NC2CC(F)(F)C2)nc(C(N)=O)c1N` [Compound 475], for which the concentration for half-maximal inhibition (IC50) was determined as 14 nM in experiment [1] and 138 nM in experiment [2].

For `Cc1ccc2[nH]ncc2c1-c1nc(-c2ccccc2NC2CC2)nc(C(N)=O)c1N` [Compound 476], the concentration for half-maximal inhibition (IC50) in experiment [1] was found to be 3 nM; in experiment [2] it was 25 nM.

For the compound `Cc1ccc2[nH]ncc2c1-c1nc(-c2cc(F)c(F)cc2NC(=O)C2(C#N)CC2)nc(C(N)=O)c1N` [Compound 477], the IC50 in experiment [1] was 3 nM; in experiment [2], 26 nM.

Take `Cc1ccc2[nH]ncc2c1-c1nc(-c2ccccc2NC(=O)C2(C3CC3)CC2)nc(C(N)=O)c1N` [Compound 478]: the results for the half-maximal inhibitory concentration (IC50) in experiment [1] and in experiment [2] were 6 nM and 80 nM, respectively.

On to `Cc1ccc2[nH]ncc2c1-c1nc(-c2cc(F)c(F)cc2NS(=O)(=O)C2CC2)nc(C(N)=O)c1N` [Compound 480], for which the IC50 was 5 nM in experiment [1] and 158 nM in experiment [2].

In the case of `Cc1ccc2[nH]ncc2c1-c1nc(-c2cc(F)ccc2NS(=O)(=O)C2CC2)nc(C(N)=O)c1N` [Compound 481], the half-inhibitory concentration (IC50) in experiment [1] turned out to be 2 nM; in experiment [2], 83 nM.

On to `Cc1ccc2[nH]ncc2c1-c1nc(-c2cc(F)ccc2NS(=O)(=O)C2(C)CC2)nc(C(N)=O)c1N` [Compound 482], for which the IC50 in experiment [1] amounted to 5 nM; in experiment [2] it was 114 nM.

Regarding `Cc1ccc2[nH]ncc2c1-c1nc(-c2ccncc2NC(=O)C(C)(C)C)nc(C(N)=O)c1N` [Compound 483, 5-amino-6-(5-methyl-1H-indazol-4-yl)-2-(3-pivalamidopyridin-4-yl)pyrimidine-4-carboxamide], the IC50 in experiment [1] and in experiment [2] was 2 nM in each case.
